Experimental data: patent US20060100257A1, “Inhibitors against the activation of ap-1 and nfat” (priority 2002, published 2006)

Experiments:
AP-1 [1] = experiment: Inhibition of AP-1 activation by TNF α stimulation (pAP-1-Luc reporter, HeLa); assay type: cell-based, human; conditions: TNF-α (40 ng/ml), 4 hours; for Inhibitory Ratio of AP-1 Activation(%) Drug Concentration 1 μg/mL: test compound 1 μg/mL; for Inhibitory Ratio of AP-1 Activation(%) Drug Concentration 10 μg/mL: test compound 10 μg/mL
Description: Measurement of Inhibition of AP-1 Activation by TNF α Stimulation
Using a transfection reagent (Effectene; QIAGEN), the human uterine cancer cell strain HeLa was transfected with a plasmid (pAP-1-Luc Reporter Plasmid: STRATAGENE) according to the QIAGEN's protocol, which was integrated with an oligonucleotide having seven tandem copies of AP-1 binding sequences (TGACTAA) on a upstream region of firefly luciferase gene (Luc), and the cells were incubated for 6 to 24 hours. Then, the cells were added with TNF-α (40 ng/ml) in the presence or absence of a test compound and incubated for 4 hours, and intracellular luciferase activity was measured by using PicaGene LT(TOYO INK MFG Co., Ltd.) and chemical luminescence measurement apparatus(SPECTRAFluor Plus; TECAN). The inhibitory ratio was obtained as a ratio relative to the value of the luciferase activity in the absence of the test compound.

NFAT [2] = experiment: Inhibition of NFAT activation (1) (NFAT-LacZ reporter, Jurkat cell); assay type: cell-based; conditions: A23187 and PMA, 4 hours
Description: Measurement of Inhibition of NFAT Activation (1)
A Jurkat cell transfected with a reporter plasmid (NFAT-LacZ), which was integrated with the NFAT binding sequence on a upstream region of the β-galactosidase gene (LacZ) according to the method described in the “Proceedings of The National Academy of Sciences of The United States of America” 1991, Vol. 88, No. 9, p. 3972-3976, was incubated for 4 hours in the Modified RPMI 1640 medium in the presence of A23187 as a calcium ionophore and PMA (Phorbol 12-myristate 13-acetate), and in the presence or absence of a test compound. Then, intracellular β-galactosidase activity was measured by the method described in the “Proceedings of The National Academy of Sciences of The United States of America” 1991, Vol. 88, No. 9, p. 3972-3976. The inhibitory ratio was obtained as a ratio relative to the value of the β-galactosidase activity in the absence of the test compound.

AP-1 [3] = experiment: Inhibition of AP-1 activation by forced expression of MEKK-1 (pAP-1-Luc reporter, HepG2); assay type: cell-based, human; conditions: HepG2, MEKK-1 expression plasmid, 24 hours; for Inhibitory Ratio of AP-1 Activation(%) Drug Concentration 1 μM: test compound 1 μM; for Inhibitory Ratio of AP-1 Activation(%) Drug Concentration 1 μg/mL: test compound 1 μg/mL
Source text: Measurement of Inhibition of AP-1 Activation by Forced Expression of MEKK-1
Using a transfection reagent (Effectene; QIAGEN), the human hepatoma cell strain HepG2 was cotransfected with a plasmid (pAP-1-Luc Reporter Plasmid: STRATAGENE), integrated with an oligonucleotide having seven tandem copies of AP-1 binding sequences (TGACTAA) on an upstream region of the firefly luciferase gene (Luc), and the MEKK-1 expression plasmid (pFCMEKK: STRATAGENE) according to the QIAGEN's protocol, and the cells were incubated for 20 to 24 hours. Then, after the cells were incubated in the presence or absence of a test compound for 24 hours, intracellular luciferase activity was measured by using PicaGene LT(TOYO INK MFG Co., Ltd.) and a chemical luminescence measurement apparatus (SPECTRAFluor Plus; TECAN). The inhibitory ratio was measured as a ratio relative to the value of the luciferase activity in the absence of the test compound.

NFAT [4] = experiment: Inhibition of NFAT activation (2) (NFAT Luc reporter, HepG2); assay type: cell-based, human; conditions: HepG2, TPA (200 nM) and ionomycin (2 μM); for Inhibition Ratio of NFAT Activation(%) Drug Concentration 1 μM: test compound 1 μM; for Inhibition Ratio of NFAT Activation(%) Drug Concentration 1 μg/mL: test compound 1 μg/mL
Description: Measurement of Inhibition of NFAT Activation (2)
Using a transfection reagent (Effectene; QIAGEN), the human hepatoma cell strain HepG2 was transfected with a plasmid (NFAT Luc) which was integrated with an NFAT binding sequence on a upstream region of the firefly luciferase gene (Luc) according to the QIAGEN's protocol, and the cells were incubated for 20 to 24 hours.
After incubation of the cells in the presence or absence of a test compound for 4 hours, TPA (200 nM) and ionomycin (2 μM) were added and the cells were incubated for 20 to 24 hours.
Then, intracellular luciferase activity was measured by using PicaGene LT(TOYO INK MFG Co., Ltd.) and a chemical luminescence measurement apparatus (SPECTRAFluor Plus; TECAN).
The inhibitory ratio was measured as a ratio relative to the value of the luciferase activity in the absence of the test compound.

Structure (SMILES) | Inhibitory Ratio of AP-1 Activation(%) Drug Concentration 1 μg/mL (AP-1 [1]) [%] | Inhibitory Ratio of AP-1 Activation(%) Drug Concentration 10 μg/mL (AP-1 [1]) [%] | Inhibitory Ratio of AP-1 Activation(%) Drug Concentration 1 μg/mL (AP-1 [3]) [%] | Inhibition Ratio of NFAT Activation(%) Drug Concentration 1 μg/mL (NFAT [4]) [%] | other results
O=C(Nc1cc(C(F)(F)F)cc(C(F)(F)F)c1)c1cc(Cl)ccc1O [Compound No. 50, N-[3,5-Bis(trifluoromethyl)phenyl]-5-chloro-2-hydroxybenzamide] | 42.4 | 89.1 | 99.4 | 99.5 | Inhibitory Ratio of NFAT Activation(%) Drug Concentration 1 μM (NFAT [2]; test compound 1 μM): 70%; Inhibitory Ratio of NFAT Activation(%) Drug Concentration 10 μM (NFAT [2]; test compound 10 μM): 100%; Inhibitory Ratio of AP-1 Activation(%) Drug Concentration 1 μM (AP-1 [3]): 90.7%; Inhibition Ratio of NFAT Activation(%) Drug Concentration 1 μM (NFAT [4]): 94.8%
O=C(Nc1cc(C(F)(F)F)cc(C(F)(F)F)c1)c1cc(I)ccc1O [Compound No. 52, N-[3,5-bis(trifluoromethyl)phenyl]-2-hydroxy-5-iodobenzamide] | 25.4 | 82.4 | – | – | –
CC(C)(C)c1ccc(O)c(C(=O)Nc2cc(C(F)(F)F)cc(C(F)(F)F)c2)c1 [Compound No. 56, N-[3,5-Bis(trifluoromethyl)phenyl]-5-[(1,1-dimethyl)ethyl]-2-hydroxybenzamide] | – | – | 96.3 | 99.7 | Inhibitory Ratio of AP-1 Activation(%) Drug Concentration 1 μM (AP-1 [3]): 82.6%; Inhibition Ratio of NFAT Activation(%) Drug Concentration 1 μM (NFAT [4]): 88.9%
O=C(Nc1cc(C(F)(F)F)cc(C(F)(F)F)c1)c1cc(C#Cc2ccccc2)ccc1O [Compound No. 65, N-[3,5-bis(trifluoromethyl)phenyl]-2-hydroxy-5-(phenylethynyl)benzamide] | – | 44.1 | – | – | –
O=C(Nc1cc(C(F)(F)F)cc(C(F)(F)F)c1)c1cc(-c2ccccc2)ccc1O [Compound No. 67] | 18.1 | 60.9 | 94.8 | >99.9 | –
O=C(Nc1cc(C(F)(F)F)cc(C(F)(F)F)c1)c1cc(-n2cccc2)ccc1O [Compound No. 71] | – | – | 98.0 | >99.9 | –
CC(=O)Oc1ccccc1C(=O)Nc1cc(Cl)cc(Cl)c1 [compound 172, 2-acetoxy-N-(3,5-dichlorophenyl)benzamide] | – | – | – | – | melting point: 218 to 219 °C
CC(C)(C)C(=O)c1sc(NC(=O)c2cc(Cl)ccc2O)nc1C(C)(C)C [compound 195, 5-Chloro-N-{4-[(1,1-dimethyl)ethyl]-5-[(2,2-dimethyl)propionyl]thiazol-2-yl}-2-hydroxybenzamide] | – | – | 95.5 | 86.7 | Inhibitory Ratio of AP-1 Activation(%) Drug Concentration 1 μM (AP-1 [3]): 91.2%; Inhibition Ratio of NFAT Activation(%) Drug Concentration 1 μM (NFAT [4]): 96.8%
CC(C)(C)c1nc(NC(=O)c2cc(Br)ccc2O)sc1N1CCOCC1 [compound 199, 5-Bromo-N-{4-[(1,1-dimethyl)ethyl]-5-morpholinothiazol-2-yl}-2-hydroxybenzamide] | – | – | 70.6 | >99.9 | –
CC(C)(C)c1nc(NC(=O)c2cc(Br)ccc2O)sc1N1CCN(c2ccccc2)CC1 [compound 201, 5-Bromo-N-{4-[(1,1-dimethyl)ethyl]-5-(4-phenylpiperazin-1-yl)thiazol-2-yl}-2-hydroxybenzamide] | – | – | 79.1 | >99.9 | –
CCOC(=O)c1sc(NC(=O)c2cc(Br)ccc2O)nc1-c1ccccc1 [compound 209, 2-(5-bromo-2-hydroxybenzoyl)amino-4-phenylthiazole-5-carboxylic acid ethyl ester] | 21.7 | 55.3 | – | – | –
CCOC(=O)c1sc(NC(=O)c2cc(-c3cccs3)ccc2O)nc1-c1ccccc1 [compound 223, 2-[2-Hydroxy-5-(2-thienyl)benzoyl]amino-4-phenylthiazole-5-carboxylic acid ethyl ester] | – | 7.0 | – | – | –
